Converted amounts (≈) assume the structure as drawn. Like-named read-outs stand apart in the source and are kept apart here.
Columns and labels:
P. falciparum = test: in vitro activity against malaria pathogen P. falciparum; format: cell-based; settings: Plasmodium falciparum
Experimental: (§1) In the case of in vitro experiments an minimum inhibitory concentration of 0.1-1.6 μg/ml has been determined for compound A against Bacteroides fragilis strains. […] In comparison to this, values of 79 and 45 μg/l, respectively, were determined for the known pyrimethamine.

[1] = test system: Bacteroides fragilis strains; test: in vitro minimum inhibitory concentration against Bacteroides fragilis strains; format: cell-based
Experimental: as §1

[2] = molecular target: dihydrofolate reductase from E. coli (Escherichia coli, UniProt P0ABQ4); test: inhibition of dihydrofolate reductase from E. coli; format: biochemical
[3] = P. falciparum strain 13, read-out: ID50 (the source's name)
[4] = P. falciparum strain T9, read-out: ID50 (the source's name)

SMILES | IC50 (P. falciparum; [3]) [mg/L] | IC50 (P. falciparum; [4]) [mg/L] | MIC [1] [mg/L] | IC50 [2] [nM]
COc1cc(OC)cc(N2[C@@H]3CC[C@H]2C[C@H](c2cnc(N)nc2N)C3)c1 [compound A, exo-2,4-diamino-5-[8-(3,5-dimethoxyphenyl)-8-azabicyclo[3.2.1]oct-3-yl]pyrimidine] | 0.0009 (≈ 0.00253 µM) | 0.0014 (≈ 0.00394 µM) | 0.1 to 1.6 (≈ 0.281 to 4.5 µM) | 3.3
CCc1nc(N)nc(N)c1-c1ccc(Cl)cc1 [pyrimethamine, reference compound] | 0.045 (≈ 0.181 µM) | 0.079 (≈ 0.318 µM) |  | 

Reference: patent publication US4590270A, “2,4-diamino-[4-piperidinyl]pyrimidines useful as antibacterial agents, antimalarial agents, antitumors agents” (Hoffmann-La Roche Inc., priority 1983, dated 1986)
